The text below walks through data of paper PMC11921344, “Antimicrobial peptide DiPGLa-H exhibits the most outstanding anti-infective activity among the PGLa variants based on a systematic comparison” (Applied and Environmental Microbiology, 2025).

Read-outs that look alike come from different tables or passages of the source. Where no end group is shown, it is not given here.

One assay has as its system E. coli ATCC25922. It counts as cell-based, Escherichia coli. As for the experimental part:
(§1) The antibacterial activity was evaluated using a standard MIC and MBC assay according to the National Committee for Clinical Laboratory Standards (NCCLS). MIC, MBC assay, and time-kill curves for the optimal peptide are provided in the Supplementary Materials.
Antimicrobial Activity Assays. The antibacterial activity of the peptides was determined using a method designed from the National Committee for Clinical Laboratory Standards (NCCLS) in the United States. All the strains used in the experiment are preserved in the laboratory. Briefly, log phase bacterial cells were diluted in MHB to a final concentration of 0.5-1x10^5 CFU/mL. Subsequently, 50μL of different concentrations of polypeptides were incubated with 50 μL of bacterial solution in sterile 96-well plates. In the minimum inhibitory concentration (MIC) assay, […], and the minimum inhibitory concentration (MIC) was determined by the absorbance at 492 nm of the microplate reader, and the minimum inhibitory concentration (MIC) inhibited 95% of bacteria grow. Determination of minimum bactericidal concentration: the plate was incubated at 37°C for 4 hours, 50 μL of the mixture was taken out of each well, diluted with an appropriate amount of PBS, smeared on the agar plate, and cultured overnight. Colonies were counted and the initial CFU/well was retrospectively calculated the following day. The lowest concentration of peptide that kills 99.9% of bacterial cells is the minimum bactericidal concentration (µM), Each test was replicated at least 3 times.

Assay [1] has as its system S. aureus Mu50. It counts as cell-based, Staphylococcus aureus MRSA. The method, then:
as §1
Antimicrobial Activity Assays. The antibacterial activity of the peptides was determined using a method designed from the National Committee for Clinical Laboratory Standards (NCCLS) in the United States. All the strains used in the experiment are preserved in the laboratory. Briefly, log phase bacterial cells were diluted in MHB to a final concentration of 0.5-1x10^5 CFU/mL. Subsequently, 50μL of different concentrations of polypeptides were incubated with 50 μL of bacterial solution in sterile 96-well plates. In the minimum inhibitory concentration (MIC) assay, the plate was incubated at 37°C for 24 h, and the minimum inhibitory concentration (MIC) was determined by the absorbance at 492 nm of the microplate reader, and the minimum inhibitory concentration (MIC) inhibited 95% of bacteria grow. Determination of minimum bactericidal concentration: the plate was incubated at 37°C for 4 hours, 50 μL of the mixture was taken out of each well, diluted with an appropriate amount of PBS, smeared on the agar plate, and cultured overnight. Colonies were counted and the initial CFU/well was retrospectively calculated the following day. The lowest concentration of peptide that kills 99.9% of bacterial cells is the minimum bactericidal concentration (µM), Each test was replicated at least 3 times.

Assay [2] relates to S. aureus Mu50. Description: Time-kill (bactericidal) curve. In kind it is cell-based, Staphylococcus aureus MRSA. The following applies: four times MIC, TSB, 37°C. The method, then: as §1
The bactericidal curve of the optimal peptide was further determined. […] Each test was replicated at least 3 times.

Assay [3] has as its system E. coli K88 outer membrane. Description: Outer membrane integrity assay (NPN uptake). It counts as cell-based, Escherichia coli. The method, then: The outer and inner membrane integrity of bacterial cells treated with peptides was assessed using NPN and PI staining, respectively. Full details are provided in the Supplementary Materials.
Membrane permeabilization. Outer membrane integrity assay. The fluorescent probe NPN (Sigma-Aldrich, catalog no. 104043, ≥98%) was used to assess the outer membrane integrity of DiPGLa-H or mucin-treated E. coli K88. Briefly, log-medium E. coli K88 cells (OD600 = 0.2) were incubated with NPN (10 μM) in 5 mM HEPES buffer (pH 7.4, containing 5 mM glucose) for 30 min, and background fluorescence was recorded for subtraction. (excitation λ = 350 nm, emission λ = 420 nm) using a microplate reader (Varioskan Flash; Thermo, America). Subsequently, 100 μL of cell suspension was mixed with an equal volume of peptide solutions ranging in concentration from 4 to 64 μM in a sterile 96-well black plate. Fluorescence was recorded over time until no further increase in fluorescence was detected. Each test was performed independently, in duplicate, with three biological replicates, and results were converted to percent NPN uptake using the equation. NPN uptake (%) = (Fobs – Fbuffer)/ (Fpositive – Fbuffer) ×100%.
where Fobs is the observed fluorescence at a given peptide concentration, Fbuffer is the fluorescence of the buffer, and Fpositive is the fluorescence of NPN with microbial cells upon addition of 10 μg/mL polymyxin B (Sigma), which was used as a positive control because of its strong outer membrane-permeabilizing property. Untreated cell suspension served as the negative control.

In assay [4] the test system is S. aureus Mu50. It counts as cell-based, Staphylococcus aureus MRSA. The following applies: for MIC S. aureus Mu50: Mu50, 2 h. The method, then:
To assess the stability of the peptides in physiological conditions, the peptides were incubated with E. coli K88 and S. aureus Mu50 in the presence of salts (150 mM NaCl, 4.5 mM KCl, 6 µM NH4Cl, 8 µM ZnCl2, 1 mM MgCl2, 4 µM FeCl3, and 2.5 µM CaCl2) in accordance with a previously reported protocol. To determine the thermal stability of the peptides, the peptides were pretreated at 100°C for 30 min, 60 min, and 90 min and cooled on ice for 10 min. The effect of acid and base on the antimicrobial activity was measured by treating the peptides for 2 h at pH of 2, 4, 10, and 12 in 10 mM sodium phosphate buffer adjusted with HCl or NaOH.

Regarding “KIAKVALKALKIAKVALKAL-NH2 (C-terminus assumed) [DiPGLa-H]”, the MBC E. coli ATCC25922 against E. coli ATCC25922 (ATCC25922, 4 h) turned out to be 8 µM. This substance gave an MIC E. coli ATCC25922 in the assay with E. coli ATCC25922 (ATCC25922, 24 h) of 8 µM. The “MBC S. aureus Mu50” value against S. aureus Mu50 [1] (Mu50, 4 h) was found to be 16 µM. Also, the “MIC S. aureus Mu50” value with S. aureus Mu50 [1] (Mu50, 24 h) was 8 µM; in the assay with S. aureus Mu50 [1] (lowest concentration inhibiting 95% of growth, MHB, 0.5-1x10^5 CFU/mL, 37°C 24 h, absorbance 492 nm, three independent experiments) it was 8 µM; with S. aureus Mu50 [4] (pH 2), over 32 µM; against S. aureus Mu50 [4] (pH 4) it was over 32 µM; with S. aureus Mu50 [4] (pH 10) it was 32 µM; against S. aureus Mu50 [4] (pH 12), 32 µM. Further, in the assay on S. aureus Mu50 [2], the “time to complete eradication of S. aureus Mu50” value is 6 h. In assay [3] (64 µM peptide, relative to 10 µg/mL polymyxin B = 100%), the “outer membrane permeability (NPN uptake)” value is on record as 184.4%. Further, in assay [3] (1× MIC), the membrane permeability entry is listed as “approximately 80%”. For the same substance, the “increase in MIC after high temperature and pH treatments, S. aureus Mu50” value in the assay on S. aureus Mu50 [4] (heat 100°C and pH 2-12 treatments) is at least 4 fold. The “increase in MIC values by cations, S. aureus Mu50” value in the assay on S. aureus Mu50 [4] (salts of Table S2) is given as “more than fourfold increase”.
